PubChem BioAssay AID330 (DTP/NCI, 2004)
Where “and” joins values, the source holds several entries; their conditions need not be identical. Identical values can stand only once. Inconclusive results and toxic doses are left out. Rule for the calls: active = survival T/C of 150% or more; inactive = T/C below 125% in these data. Numbered stars: 1 amine (or outer) side, 2 acyl side, 3 side chain; on linkers, the order of the positions; unused ones are H or OH. Square brackets hold non-standard residues; d marks the D form. Peptide text beside a SMILES is read from it. X21 = O=C(C1=CN(Cc2ccccc2)C=CC1N[*:1])[*:2]

System: P388 leukemia ip, CD2F1 mice, survival T/C
Experiment: NCI In Vivo Anticancer Drug Screen. Data for tumor model P388 Leukemia (intraperitoneal) in CD2F1 (CDF1) mice
Settings: endpoint: median survival time, higher = longer survival
Outline: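 Mice carrying the transplanted tumor received test compound or vehicle. Survival was recorded in each group, and the value is the treated-group measurement divided by that of the vehicle-treated control group.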

[1] = dose: 100.0 mg/kg/injection, schedule: Q04DX003 (ip), vehicle: saline with Tween-80
[2] = dose: 200.0 mg/kg/injection, schedule: Q04DX003 (ip), vehicle: saline with Tween-80
[3] = dose: 400.0 mg/kg/injection, schedule: Q04DX003 (ip), vehicle: saline with Tween-80
[4] = dose: 25.0 mg/kg/injection, schedule: Q01DX005 (ip), vehicle: saline with Tween-80
[5] = dose: 50.0 mg/kg/injection, schedule: Q01DX005 (ip), vehicle: saline with Tween-80
[6] = dose: 100.0 mg/kg/injection, schedule: Q01DX005 (ip), vehicle: saline with Tween-80
[7] = dose: 50.0 mg/kg/injection, schedule: Q01DX005 (ip), vehicle: Klucel (hydroxypropylcellulose) (HPC)
[8] = dose: 100.0 mg/kg/injection, schedule: Q01DX005 (ip), vehicle: Klucel (hydroxypropylcellulose) (HPC)
[9] = dose: 200.0 mg/kg/injection, schedule: Q01DX005 (ip), vehicle: Klucel (hydroxypropylcellulose) (HPC)
[10] = dose: 50.0 mg/kg/injection, schedule: Q01DX009 (ip), vehicle: saline with Tween-80
[11] = dose: 100.0 mg/kg/injection, schedule: Q01DX009 (ip), vehicle: saline with Tween-80
[12] = dose: 200.0 mg/kg/injection, schedule: Q01DX009 (ip), vehicle: saline with Tween-80

Measured: T/C

c1cc2ccc3ccc4ccc5ccc6ccc1c1c2c3c4c5c61
inactive: dose: 12.5 mg/kg/injection, schedule: Q01DX001 (ip), vehicle: Klucel (hydroxypropylcellulose) (HPC) 100 % of control | dose: 25.0 mg/kg/injection, schedule: Q01DX001 (ip), vehicle: Klucel (hydroxypropylcellulose) (HPC) 104 % of control | dose: 50.0 mg/kg/injection, schedule: Q01DX001 (ip), vehicle: Klucel (hydroxypropylcellulose) (HPC) 96 % of control | dose: 100.0 mg/kg/injection, schedule: Q01DX001 (ip), vehicle: Klucel (hydroxypropylcellulose) (HPC) 96 % of control

O=c1[nH]cccc1[N+](=O)[O-]
inactive: [1] 100 % of control | [2] 100 % of control | [3] 109 % of control | dose: 600.0 mg/kg/injection, schedule: Q01DX009 (ip), vehicle: saline 90 % of control and 93 % of control

Cc1ccc(C2OC2(C(=O)C=[N+]=[N-])c2ccccc2)cc1 (stereo not drawn)
inactive: [4] 89 % of control | [5] 92 % of control | [6] 86 % of control | dose: 200.0 mg/kg/injection, schedule: Q01DX005 (ip), vehicle: saline with Tween-80 91 % of control

NC(CCCCNC=O)C(=O)O (stereo not drawn)
inactive: dose: 50.0 mg/kg/injection, schedule: Q01DX005 (ip), vehicle: saline 104 % of control | dose: 100.0 mg/kg/injection, schedule: Q01DX005 (ip), vehicle: saline 98 % of control | dose: 200.0 mg/kg/injection, schedule: Q01DX005 (ip), vehicle: saline 96 % of control

NC(=S)N/N=C/c1cc(Br)ccc1O
inactive: [1] 86 % of control | [2] 94 % of control | [3] 112 % of control

COC(=O)c1cc(OC)cc(C)c1OC(=Nc1cccc(Cl)c1C)c1ccccc1
inactive: [7] 97 % of control | [8] 92 % of control | [9] 96 % of control

CCc1cccc(NC(=O)Sc2ccc(O)cc2)c1
inactive: [10] 108 % of control | [11] 106 % of control

COC(=O)C(Cl)c1ccccc1 (stereo not drawn)
inactive: [11] 104 % of control | [12] 113 % of control | dose: 400.0 mg/kg/injection, schedule: Q01DX009 (ip), vehicle: saline with Tween-80 100 % of control

CC(C)C(NC(=O)C1CCCN1)C(=O)O (stereo not drawn) (H-Pro-Val-OH; configuration not given here)
inactive: dose: 50.0 mg/kg/injection, schedule: Q01DX009 (ip), vehicle: saline 103 % of control | dose: 100.0 mg/kg/injection, schedule: Q01DX009 (ip), vehicle: saline 99 % of control | dose: 200.0 mg/kg/injection, schedule: Q01DX009 (ip), vehicle: saline 100 % of control

C[As](C)SC(CO)C1OC2OC(C)(C)OC2C1O (stereo not drawn)
inactive: dose: 50.0 mg/kg/injection, schedule: Q01DX009 (ip), vehicle: saline + alcohol 108 % of control

N#CNC1=NC(c2ccccc2O)CC(=O)N1 (stereo not drawn)
inactive: dose: 100.0 mg/kg/injection, schedule: Q04DX003 (ip), vehicle: suspension in saline 98 % of control | dose: 200.0 mg/kg/injection, schedule: Q04DX003 (ip), vehicle: suspension in saline 105 % of control | dose: 400.0 mg/kg/injection, schedule: Q04DX003 (ip), vehicle: suspension in saline 100 % of control

COc1cc2c(cc1O)C(CSC)Cc1cc3c(cc1N(C)CC2)OCO3 (stereo not drawn)
inactive: dose: 12.5 mg/kg/injection, schedule: Q01DX009 (ip), vehicle: saline with Tween-80 100 % of control | dose: 25.0 mg/kg/injection, schedule: Q01DX009 (ip), vehicle: saline with Tween-80 100 % of control | [10] 102 % of control | [11] 88 % of control | [12] 95 % of control

CC1NC(=O)C(C(C)C)NC(=O)C2=CN(Cc3ccccc3)C=CC2NC(=O)C(C)NC(=O)C(C(C)C)NC(=O)C2=CN(Cc3ccccc3)C=CC2NC1=O (stereo not drawn) (cyclo([X21]VA[X21]VA); configuration not given here)
inactive: dose: 60.0 mg/kg/injection, schedule: Q01DX005 (ip), vehicle: saline with Tween-80 94 % of control | dose: 120.0 mg/kg/injection, schedule: Q01DX005 (ip), vehicle: saline with Tween-80 93 % of control

COc1ccc(C=NCCC[Si]23OCCN(CCO2)CCO3)c(OC)c1OC
inactive: [7] 98 % of control | [8] 94 % of control | [9] 103 % of control

Nc1nnc(-c2ccccc2)s1
inactive: dose: 12.5 mg/kg/injection, schedule: Q01DX009 (ip), vehicle: Klucel (hydroxypropylcellulose) (HPC) 114 % of control | dose: 25.0 mg/kg/injection, schedule: Q01DX009 (ip), vehicle: Klucel (hydroxypropylcellulose) (HPC) 107 % of control | dose: 50.0 mg/kg/injection, schedule: Q01DX008 (ip), vehicle: Klucel (hydroxypropylcellulose) (HPC) 109 % of control | dose: 50.0 mg/kg/injection, schedule: Q01DX009 (ip), vehicle: Klucel (hydroxypropylcellulose) (HPC) 114 % of control | dose: 100.0 mg/kg/injection, schedule: Q01DX008 (ip), vehicle: Klucel (hydroxypropylcellulose) (HPC) 109 % of control | dose: 200.0 mg/kg/injection, schedule: Q01DX008 (ip), vehicle: Klucel (hydroxypropylcellulose) (HPC) 114 % of control

CCOC(=O)c1ccc(NC(CCl)=NC(C)(C)C)cc1
inactive: [10] 86 % of control | [11] 100 % of control | [12] 90 % of control

O=[N+]([O-])c1cc2c(ccc3cc(Br)ccc32)o1
inactive: [7] 87 % of control | [8] 92 % of control | [9] 92 % of control

Nc1nc(=O)n(C2CCCCO2)cc1Br (stereo not drawn)
inactive: [7] 104 % of control | [8] 109 % of control | [9] 97 % of control

CC1CN=C(c2ccc(NC(=O)NCCCCCCCCCCCCNC(=O)Nc3ccc(C4=NCC(C)N4)cc3)cc2)N1 (stereo not drawn)
inactive: dose: 6.25 mg/kg/injection, schedule: Q01DX005 (ip), vehicle: saline with Tween-80 103 % of control | dose: 12.5 mg/kg/injection, schedule: Q01DX005 (ip), vehicle: saline with Tween-80 103 % of control | [4] 108 % of control | [5] 106 % of control | [6] 116 % of control

CC1=CC(=O)C(=O)C2=C1OC1(C2)C(C)CCC2C3(C)CCC(O)C(C)(C)C3CCC21C (stereo not drawn)
inactive: dose: 25.0 mg/kg/injection, schedule: Q01DX005 (ip), vehicle: distilled water + Tween-80 95 % of control | [4] 95 % of control | dose: 50.0 mg/kg/injection, schedule: Q01DX005 (ip), vehicle: distilled water + Tween-80 115 % of control | [5] 111 % of control | [6] 109 % of control

CCCCCCCCCCC[N+]1(CC)CCCC1
inactive: dose: 0.19 mg/kg/injection, schedule: Q01DX009 (ip), vehicle: saline 103 % of control | dose: 0.39 mg/kg/injection, schedule: Q01DX009 (ip), vehicle: saline 98 % of control and 109 % of control | dose: 0.78 mg/kg/injection, schedule: Q01DX009 (ip), vehicle: saline 98 % of control and 104 % of control and 115 % of control | dose: 1.56 mg/kg/injection, schedule: Q01DX009 (ip), vehicle: saline 99 % of control | dose: 3.12 mg/kg/injection, schedule: Q01DX009 (ip), vehicle: saline 111 % of control

c1cc[c]([GeH][c]2ccccc2)cc1.c1cc[c]([GeH][c]2ccccc2)cc1
inactive: dose: 12.5 mg/kg/injection, schedule: Q01DX005 (ip), vehicle: Klucel (hydroxypropylcellulose) (HPC) 101 % of control | dose: 25.0 mg/kg/injection, schedule: Q01DX005 (ip), vehicle: Klucel (hydroxypropylcellulose) (HPC) 97 % of control | [7] 100 % of control and 101 % of control | [8] 99 % of control | [9] 100 % of control

Cc1ccc(S(=O)(=O)/N=C2\CCN(S(=O)(=O)c3ccccc3)N2S(=O)(=O)c2ccc(C)cc2)cc1
inactive: [7] 99 % of control | [8] 90 % of control | [9] 94 % of control

O=c1ccc(OS(=O)(=O)c2ccccc2)n[nH]1
inactive: dose: 60.0 mg/kg/injection, schedule: Q01DX005 (ip), vehicle: Klucel (hydroxypropylcellulose) (HPC) 92 % of control | dose: 120.0 mg/kg/injection, schedule: Q01DX005 (ip), vehicle: Klucel (hydroxypropylcellulose) (HPC) 90 % of control
